Data as given in patent US20240174603A1 (Rappta Therapeutics Oy, priority 2021, published 2024).

Each compound was assayed on LNCaP cells (assay: LNCaP cell viability assay (MTS)). Conditions: Homo sapiens, LNCaP, 48 h, LNCaP cell line.
Type: cell-based
Experimental: LNCaP cell line was used for the cell viability assay. LNCaP cells were plated in 96-well plates at a density of 5000 cells per well. After 24 hours of plating, the cells were treated with increasing doses of compound (e.g., compounds 1-269) ranging from 1 μM to 80 μM. Relative cell numbers were analyzed after 48 hours using 3-(4,5-dimethylthiazol-2-yl)-5-(3-carboxymethoxyphenyl)-2-(4-sulfophenyl)-2H-tetrazolium (MTS) assay (Promega) according to the manufacturer's instructions.
The cell viability data was analyzed with GraphPad Prism software. The values were log transformed and analyzed with non-linear regression (curve-fit) using log(inhibitor) vs. response-variable slope (four parameters) and constraining the bottom to equal zero. Unless otherwise indicated, the GI50 values provided in Table 113 correspond to the LNCaP cell viability assays.

SMILES | GI50 [µM]
CN(C)CC(NS(=O)(=O)c1ccc(C(=O)NC2CCCCC2)cc1)c1ccc(Cl)c(Cl)c1 (stereo not drawn) [Compound 187, N-cyclohexyl-4-(N-(1-(3,4-dichlorophenyl)-2-(dimethylamino)ethyl)sulfamoyl)benzamide] | 53.6
CN(C)CC(NS(=O)(=O)c1ccc(-c2ccccc2)cc1)c1ccc(Cl)c(Cl)c1 (single isomer, unassigned) [Compound 195, N-(1-(3,4-dichlorophenyl)-2-(dimethylamino)ethyl)-[1,1′-biphenyl]-4-sulfonamide] | 11.9
CC(C)CN(CCNS(=O)(=O)c1ccc(OC(F)(F)F)cc1)CC(C)C [Compound 63, N-(2-(diisobutylamino)ethyl)-4-(trifluoromethoxy)benzenesulfonamide] | 60
O=S(=O)(NCC1(c2ccc(Cl)c(Cl)c2)CC1)c1ccc(OC(F)(F)F)cc1 [Compound 227, N-((1-(3,4-dichlorophenyl)cyclopropyl)methyl)-4-(trifluoromethoxy)benzenesulfonamide] | 48.6
CN1CCN(CC(NS(=O)(=O)c2ccc(OC(F)(F)F)cc2)c2ccc(Cl)c(Cl)c2)CC1 (stereo not drawn) [Compound 185, N-(1-(3,4-dichlorophenyl)-2-(4-methylpiperazin-1-yl)ethyl)-4-(trifluoromethoxy)benzenesulfonamide] | 12.6
CN(C)CC(NS(=O)(=O)c1ccc(Cl)cc1)c1ccc(Cl)c(Cl)c1 (stereo not drawn) [Compound 164, 4-chloro-N-(1-(3,4-dichlorophenyl)-2-(dimethylamino)ethyl)benzenesulfonamide] | 28.2
CCC(C#N)Oc1cccc(CNS(=O)(=O)c2ccc(OC(F)(F)F)cc2)c1 (stereo not drawn) [Compound 52, N-(3-(1-cyanopropoxy)benzyl)-4-(trifluoromethoxy)benzenesulfonamide] | 72

Continued, values first:

GI50 [µM] | SMILES
39 | O=S(=O)(NCC1CCCCC1c1ccccc1)c1ccc(OC(F)(F)F)cc1 (stereo not drawn) [Compound 49, N-((2-phenylcyclohexyl)methyl)-4-(trifluoromethoxy)benzenesulfonamide]
18 | CC1(C)CC1(CNS(=O)(=O)c1ccc(OC(F)(F)F)cc1)c1ccc(F)cc1F (stereo not drawn) [Compound 84, N-((1-(2,4-difluorophenyl)-2,2-dimethylcyclopropyl)methyl)-4-(trifluoromethoxy)benzenesulfonamide]
21.1 | CN(C)CC(NS(=O)(=O)c1cccc(OC(F)(F)F)c1)c1ccc(Cl)c(Cl)c1 (stereo not drawn) [Compound 128, N-(1-(3,4-dichlorophenyl)-2-(dimethylamino)ethyl)-3-(trifluoromethoxy)benzenesulfonamide]
50.9 | COCCC(NS(=O)(=O)c1ccc(OC(F)(F)F)cc1)c1ccc(Cl)c(Cl)c1 (stereo not drawn) [Compound 35, N-(1-(3,4-dichlorophenyl)-3-methoxypropyl)-4-(trifluoromethoxy)benzenesulfonamide]
20 | CC1CC1C(NS(=O)(=O)c1ccc(OC(F)(F)F)cc1)c1ccccc1 (stereo not drawn) [Compound 103, N-((2-methylcyclopropyl)(phenyl)methyl)-4-(trifluoromethoxy)benzenesulfonamide]
15 | CC1CCCCC1OCCNS(=O)(=O)c1ccc(OC(F)(F)F)cc1 (stereo not drawn) [Compound 95, N-(2-((2-methylcyclohexyl)oxy)ethyl)-4-(trifluoromethoxy)benzenesulfonamide]

Same assay, conditions: LNCaP cell line, 48 hours

GI50 [µM] | SMILES
13 | CN(C)CC(NS(=O)(=O)c1ccc(Oc2ccc(C(F)(F)F)cc2)cc1)c1ccc(Cl)c(Cl)c1 (single isomer, unassigned) [Compound 173, N-(1-(3,4-dichlorophenyl)-2-(dimethylamino)ethyl)-4-(4-(trifluoromethyl)phenoxy)benzenesulfonamide]
51.2 | CN(C)CC(NS(=O)(=O)c1ccc(OC(F)(F)F)cc1)c1cccc(C(F)(F)F)c1 (single isomer, unassigned) [Compound 178, N-(2-(dimethylamino)-1-(3-(trifluoromethyl)phenyl)ethyl)-4-(trifluoromethoxy)benzenesulfonamide]
